Consider five compounds from patent US20090298859A1, “METHOD FOR TREATING PLANTS” (SYNGENTA CROP PROTECTION, INC., priority 2006, published 2009).

Where “and” joins values, the source holds several entries; their conditions need not be identical. Equal entries are not always repeated.

Common to all, as to assay type: in vivo
In assay [1] the test system is Tea plants (Japanese green tea, Yabukita). Put plainly: Polyphenol content of tea leaves after pre-harvest spraying. On the set-up: Total catechin (g): unit not given here. The conditions noted are these: autumn; for Total catechin (%) when compared to untreated / % compared to untreated (total catechin): untreated = 100%. The method, then: Tea plants (Japanese green tea, Yabukita) were grown in 5 m^2 plots, and the leaves were harvested. The harvested leaves were tested for polyphenols. Fourteen days before harvest, the tea plants were sprayed with a commercial formulation of emamectin benzoate (Affirm™), difenoconazole (Score™), methidathion (Supracid™), azoxystrobin (Amistar™) or a mixture of lufenuron and thiamethoxam. An otherwise identical set of tea plants were left untreated.
The experiment was repeated using either azoxystrobin or trifloxystrobin.
Both trials detailed above were carried out in the autumn. […] It is proposed that, when photosynthesis is active (e.g. in the summer season), addition of azoxystrobin may not enhance photosynthesis further and thus may not be able to further raise catechin levels.

Assay [2] relates to Tomato plants (Variety: Sunroad). The assay can be described thus: Lycopene content of harvested tomatoes after azoxystrobin spraying. Particulars: for lycopene content, single replicate: stored at room temperature, listed as Az-treated; for lycopene content, single replicate / lycopene content, mean of 3 replicates: conventional fungicide treatment plus azoxystrobin. The protocol: Tomato plants (Variety: Sunroad) were grown and the tomatoes were harvested after spraying with a conventional fungicide treatment and with the conventional treatment plus azoxystrobin. The harvested tomatoes were stored at room temperature and tested for lycopene concentration 2, 5, 9 and 12 days after sample harvesting (three tomatoes were chosen at random from each box on each day of testing).
When this study was repeated using similar conditions but on a smaller scale, a marked rise in lycopene content was not observed (control: 11.7 mg lycopene/100 g tomato; azoxystrobin treated: 10.7 mg lycopene/100 g tomato).

In assay [3] the test system is eggplant. The assay can be described thus: Anthocyanin levels in eggplant after azoxystrobin treatment. The conditions noted are these: egg plant. The protocol: (§1) Similar work was carried out to look at isoflavone levels in soybean and anthocyanin levels in eggplant and strawberry on treatment of the plants with azoxystrobin. […] In addition, it also raised anthocyanin levels in strawberry by 50% (control: 200-220 mg anthocyanin/100 g strawberry; azoxystrobin treated: 210-420 mg anthocyanin/100 g strawberry), although it seemed to have no effect on anthocyanin levels in egg plant.

Assay [4] relates to Carrot plants. Put plainly: β-carotene content of harvested carrots after azoxystrobin spraying. The conditions noted are these: conventional treatment plus Amistar Opti (azoxystrobin and chlorothalonil). The protocol: Carrot plants were grown and the carrots were harvested after spraying twice with a conventional fungicide treatment (chlorothalonil, copper hydroxide, iminoctazine polyoxin and tolclofos-methyl) and with the conventional treatment plus Amistar Opti™ (azoxystrobin and chlorothalonil). Some of the harvested carrots were analysed immediately on harvest for β-carotene while others were stored for a week after harvest before analysis. […] It seems therefore that azoxystrobin has a clear effect on β-carotene levels in mature carrots.

Assay [5] deals with strawberry. Put plainly: Anthocyanin levels in strawberry after azoxystrobin treatment. The method, then:
as §1

For assay [6], the system named is soybean. Put plainly: Isoflavone levels in soybean after azoxystrobin treatment. The protocol:
as §1

The mark [7] stands for this setting: Table 1 trial, commercial formulation sprayed 14 days before harvest.
The mark [8] stands for this setting: 12 days after sample harvesting.

As for `COc1nn(CSP(=S)(OC)OC)c(=O)s1` [MTH, methidathion], in assay [1] (setting [7]), the Epicatechin was 1100 mg polyphenol/100 g tea leaves, the Epicatechin gallate is given as 1100 mg polyphenol/100 g tea leaves, the Epigalocatechin is listed as 4500 mg polyphenol/100 g tea leaves and the Epigalocatechin gallate is on record as 5700 mg polyphenol/100 g tea leaves. In assay [1] (Table 1 trial), the “Total catechin (%) when compared to untreated” value (shortened to “Total catechin (%) when”) is 109%.
As to `CC1COC(Cn2cncn2)(c2ccc(Oc3ccc(Cl)cc3)cc2Cl)O1` (stereo not shown) [DFZ, difenoconazole], in assay [1] (setting [7]), the Epicatechin is on record as 950 mg polyphenol/100 g tea leaves, the Epicatechin gallate is 970 mg polyphenol/100 g tea leaves, the Epigalocatechin is 4300 mg polyphenol/100 g tea leaves and the Epigalocatechin gallate is 5900 mg polyphenol/100 g tea leaves. Also, in assay [1] (Table 1 trial), the “Total catechin (%) when” value came out at 106%.
Regarding emamectin benzoate, in assay [1] (setting [7]), the Epicatechin is 960 mg polyphenol/100 g tea leaves, the Epicatechin gallate is on record as 890 mg polyphenol/100 g tea leaves, the Epigalocatechin is 4600 mg polyphenol/100 g tea leaves and the Epigalocatechin gallate is recorded as 5600 mg polyphenol/100 g tea leaves. Further, in assay [1] (Table 1 trial, sprayed 14 days before harvest, table title: mg polyphenol/100 g tea leaves), the “Total catechin (g)” value turned out to be 12050. In addition, in assay [1] (Table 1 trial), the “Total catechin (%) when” value turned out to be 106%.
As for `CO/C=C(/C(=O)OC)c1ccccc1Oc1cc(Oc2ccccc2C#N)ncn1` [Azoxystrobin, azoxystrobin], in assay [2] (2 days after sample harvesting), the “lycopene content, single replicate” value was 5.69 mg lycopene/100 g tomato and 5.67 mg lycopene/100 g tomato and 5.14 mg lycopene/100 g tomato; the “lycopene content, mean of 3 replicates” value was 5.50 mg lycopene/100 g tomato. Also, in assay [2] (5 days after sample harvesting), the “lycopene content, single replicate” value is 8.36 mg lycopene/100 g tomato and 8.87 mg lycopene/100 g tomato and 6.01 mg lycopene/100 g tomato; the “lycopene content, mean of 3 replicates” value is reported as 7.75 mg lycopene/100 g tomato. In assay [2] (9 days after sample harvesting), the “lycopene content, single replicate” value was 9.78 mg lycopene/100 g tomato and 9.14 mg lycopene/100 g tomato and 8.32 mg lycopene/100 g tomato; the “lycopene content, mean of 3 replicates” value came out at 9.08 mg lycopene/100 g tomato. In assay [2] (setting [8]), the “lycopene content, single replicate” value was 8.27 mg lycopene/100 g tomato and 8.88 mg lycopene/100 g tomato and 9.24 mg lycopene/100 g tomato; the “lycopene content, mean of 3 replicates” value was determined as 8.79 mg lycopene/100 g tomato. The lycopene content in assay [2] (repeat study, similar conditions, smaller scale, control 11.7) turned out to be 10.7 mg lycopene/100 g tomato. The “effect on anthocyanin levels” value in assay [3] is recorded as “no effect”. Moreover, in assay [4] (carrots analysed immediately on harvest, sprayed twice), the “β-carotene levels compared with conventional fungicide regime” value was “did not show an increase”. The β-carotene content in assay [4] (carrots stored for one week after harvest, conventional treatment 6.59) was 7.48 mg β-carotene/100 g carrot. Also, in assay [1] (setting [7]), the Epicatechin is listed as 930 mg polyphenol/100 g tea leaves, the Epicatechin gallate is 960 mg polyphenol/100 g tea leaves, the Epigalocatechin was 4800 mg polyphenol/100 g tea leaves and the Epigalocatechin gallate was 6200 mg polyphenol/100 g tea leaves. The “Total catechin (%) when” value in assay [1] (Table 1 trial) is reported as 113%. In assay [1] (Table 2 repeat trial), the Epicatechin is given as 24.5 mg polyphenol/g tea leaves, the Epicatechin gallate is recorded as 31.1 mg polyphenol/g tea leaves, the Epigalocatechin was 178.8 mg polyphenol/g tea leaves and the Epigalocatechin gallate was 160.6 mg polyphenol/g tea leaves. For the same compound, in assay [1] (Table 2 repeat trial), the Total catechin is 395.0 mg polyphenol/g tea leaves and the “% compared to untreated (total catechin)” value was determined as 107%. Besides, in assay [5] (control 200-220), the anthocyanin content was 210-420 mg anthocyanin/100 g strawberry. Further, the “rise of anthocyanin levels” value in assay [5] (strawberry, versus control) turned out to be 50%. For the same compound, the isoflavone content in assay [6] (control 120) was 130 mg isoflavone/100 g soybean. For the same compound, the “increase of isoflavone levels” value in assay [6] (soybean, versus control) was determined as 8%.
With `CON=C(C(=O)OC)c1ccccc1CON=C(C)c1cccc(C(F)(F)F)c1` [Trifloxystrobin, trifloxystrobin], in assay [1] (Table 2 repeat trial), the Epicatechin is listed as 23.8 mg polyphenol/g tea leaves, the Epicatechin gallate is on record as 32.4 mg polyphenol/g tea leaves, the Epigalocatechin was 190.1 mg polyphenol/g tea leaves and the Epigalocatechin gallate is given as 163.0 mg polyphenol/g tea leaves. For the same compound, in assay [1] (Table 2 repeat trial), the Total catechin was 409.3 mg polyphenol/g tea leaves and the “% compared to untreated (total catechin)” value turned out to be 110%.
